In ChEMBL document CHEMBL1201862, “PubChem BioAssay data set” (2004):
Calls of active or inactive are those of the source.

Experiments:
[1] = biological target: T1, Calpain-2 catalytic subunit (Sus scrofa, UniProt P43367); experiment: pig calpain II inhibitor potency, dose response, biochemical, fluorogenic peptide substrate (AID 1420); type: functional
T1 sequence (P43367 whole entry): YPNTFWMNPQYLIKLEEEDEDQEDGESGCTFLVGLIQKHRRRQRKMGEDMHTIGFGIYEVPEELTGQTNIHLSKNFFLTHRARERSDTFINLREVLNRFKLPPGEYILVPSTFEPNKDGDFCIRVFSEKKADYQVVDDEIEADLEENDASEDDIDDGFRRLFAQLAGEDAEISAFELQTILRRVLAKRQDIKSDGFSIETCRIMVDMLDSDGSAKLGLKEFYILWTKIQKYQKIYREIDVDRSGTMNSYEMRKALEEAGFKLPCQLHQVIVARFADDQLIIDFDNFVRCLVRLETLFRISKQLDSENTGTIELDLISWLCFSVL

[2] = biological target: T2, Corticotropin-releasing factor receptor 2/Corticotropin-releasing factor-binding protein (Homo sapiens, UniProt P24387+Q13324); experiment: Dose Response confirmation of uHTS hits for small molecule antagonists of the CRF-binding protein and CRF-R2 receptor complex.; type: functional; settings: read-out: IC50_Mean
T2 sequence (Q13324 whole entry): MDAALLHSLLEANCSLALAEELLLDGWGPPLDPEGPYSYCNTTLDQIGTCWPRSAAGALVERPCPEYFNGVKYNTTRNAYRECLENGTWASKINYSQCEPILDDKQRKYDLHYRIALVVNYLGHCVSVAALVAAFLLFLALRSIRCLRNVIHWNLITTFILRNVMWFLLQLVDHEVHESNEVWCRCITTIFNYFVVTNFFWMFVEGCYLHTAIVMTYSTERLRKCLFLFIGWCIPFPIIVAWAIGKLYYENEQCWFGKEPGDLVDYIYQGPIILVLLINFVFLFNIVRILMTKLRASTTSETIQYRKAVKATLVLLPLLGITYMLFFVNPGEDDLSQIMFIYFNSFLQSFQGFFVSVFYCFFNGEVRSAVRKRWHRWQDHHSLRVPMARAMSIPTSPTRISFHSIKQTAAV
T2 sequence (P24387 whole entry): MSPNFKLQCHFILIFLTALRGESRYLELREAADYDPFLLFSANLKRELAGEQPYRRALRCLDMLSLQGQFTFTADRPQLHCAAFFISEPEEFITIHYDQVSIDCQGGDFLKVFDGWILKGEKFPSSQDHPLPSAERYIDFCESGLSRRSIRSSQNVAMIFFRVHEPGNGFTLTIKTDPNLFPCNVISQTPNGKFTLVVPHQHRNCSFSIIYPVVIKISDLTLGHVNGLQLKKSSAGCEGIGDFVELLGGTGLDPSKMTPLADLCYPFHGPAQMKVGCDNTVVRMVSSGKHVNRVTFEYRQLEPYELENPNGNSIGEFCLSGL

[3] = biological target: T2, Corticotropin-releasing factor receptor 2/Corticotropin-releasing factor-binding protein; experiment: activators of CRF receptor 2 with binding protein – uHTS hits, confirmation (AID 602473); type: functional; settings: read-out: EC50_Mean
INS1 = experiment: beta cell apoptosis inhibitors, cytokine rescue, dose response, luminescence, retest (AID 449756); type: functional, cell-based; settings: Rattus norvegicus;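 note: cell death triggered by IL-1 beta plus TNF-alpha plus IFN-gamma mixture; protective hits raise ATP signal compared with cytokine alone wells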
[4] = biological target: T3, Heat shock factor protein 1 (Mus musculus, UniProt P38532); experiment: inhibition of MG132-induced HSE-luciferase signal, confirmation, cell-based, NIH3T3, luminescence, dose retest (AID 2382); type: functional;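 note: NIH3T3 fibroblasts with HSF1-driven luciferase reporter stressed by proteasome inhibitor MG132; luminescence from HSF1-driven luciferase expression after 8 hours of MG132 stress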
T3 sequence (P38532 whole entry): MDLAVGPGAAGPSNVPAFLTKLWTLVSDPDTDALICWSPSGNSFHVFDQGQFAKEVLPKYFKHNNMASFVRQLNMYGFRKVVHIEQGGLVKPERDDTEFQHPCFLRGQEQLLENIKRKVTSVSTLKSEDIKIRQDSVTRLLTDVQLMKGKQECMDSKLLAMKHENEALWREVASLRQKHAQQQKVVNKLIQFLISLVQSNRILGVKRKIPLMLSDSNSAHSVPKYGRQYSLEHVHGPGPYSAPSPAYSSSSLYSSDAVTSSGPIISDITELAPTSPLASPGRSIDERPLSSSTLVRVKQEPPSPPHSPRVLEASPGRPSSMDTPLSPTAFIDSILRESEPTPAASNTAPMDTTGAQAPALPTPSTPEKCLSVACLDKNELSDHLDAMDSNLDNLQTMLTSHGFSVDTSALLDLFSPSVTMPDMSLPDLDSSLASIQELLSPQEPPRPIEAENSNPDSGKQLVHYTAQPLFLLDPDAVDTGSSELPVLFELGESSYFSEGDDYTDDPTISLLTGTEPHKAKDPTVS

[5] = Shn3 3'UTR reporter inhibitors, dose response, cell-based, Clone20 osteoblasts, firefly luciferase, cherry-picked (AID 624132); type: functional;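 note: firefly luciferase luminescence from reporter carrying the Shn3 3'UTR in osteoblasts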
[6] = HepG2 cell cytotoxicity, dose response, cytotoxicity control for Shn3 inhibitor project, CellTiter-Glo, cherry-picked (AID 624134); type: functional, cell-based
[7] = control 3'UTR Renilla luciferase suppression, dose response, counter-screen for Shn3 inhibitor project, cell-based, Clone20-Shn3RL, cherry-picked (AID 624133); type: functional
Nonstructural protein 1 = Nonstructural protein 1 (Influenza A virus, UniProt Q194T2); type: functional, Influenza A virus (A/California/07/2009(H1N1))
Nonstructural protein 1, sequence (Q194T2 whole entry): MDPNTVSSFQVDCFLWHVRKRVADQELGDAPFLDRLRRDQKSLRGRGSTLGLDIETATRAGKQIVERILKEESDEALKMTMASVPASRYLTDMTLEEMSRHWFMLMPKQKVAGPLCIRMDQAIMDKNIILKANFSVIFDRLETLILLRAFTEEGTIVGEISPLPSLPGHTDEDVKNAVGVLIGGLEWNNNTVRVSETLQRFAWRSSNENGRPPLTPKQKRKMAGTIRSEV

H9c2 = experiment: cells; type: functional, cell-based; settings: Rattus norvegicus, H9c2, Myocardium;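 note: confirmatory concentration-response retest of ultra-high-throughput screening hits for modulation of myocardial damage; cell death induced by hydrogen peroxide oxidative stress; compound pretreatment for 60 min then peroxide exposure for 2 h; potency is for protecting the cells against peroxide damage rather than for killing them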
[8] = cytotoxicity toward NIH3T3 fibroblasts, dose response, counter-screen, cell-based, ATP luminescence, mouse fibroblasts (AID 2010); type: functional;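 note: cells exposed to compound for about 90 hours before reading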
[9] = inhibitors of intracellular T. cruzi replication, confirmation, NIH3T3 host cells, beta-gal luminescence (AID 2044); type: functional, cell-based;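 note: intracellular parasites grown in NIH/3T3 mouse fibroblasts as host cells; luminescent beta-galactosidase reporter signal from transgenic T. cruzi replicating inside host cells; inhibitors lower the luminescence signal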

CC(C)CCNC(=O)C12CN(Cc3ccccc3)CC1C(c1ccc([N+](=O)[O-])cc1)=NO2 (stereo not drawn)
IC50 [1]: 7.38 µM (not active)

CC(=O)Nc1ccc(S(=O)(=O)N2CCN(c3nnnn3-c3ccccc3)CC2)cc1
IC50 [2]: > 47.1 µM (inactive)
EC50 [3]: > 53 µM (inactive)

O=C1CC(c2ccccc2)CN1S(=O)(=O)c1ccccc1 (stereo not drawn)
IC50 [2]: > 47.1 µM (inactive)
EC50 [3]: > 53 µM (inactive)

Cc1cccc2c(C(=O)N3CCN(c4ccccn4)CC3)cc(-c3cccc(Br)c3)nc12
AC50 (INS1): 3.73 µM (active)
EC50 [4]: > 195 µM (not active)
AC50 [5]: 6.48 µM (active)
AC50 [6]: 45.4 µM (active)

O=C(NNC(=O)c1cccc(S(=O)(=O)N2CCc3ccccc32)c1)c1ccccc1
AC50 [5]: 1.52 µM (active)
AC50 [6]: 46.2 µM (active)
AC50 [7]: 3.89 µM (active)

O=C(OCCN1C(=O)c2ccccc2C1=O)c1ccc(S(=O)(=O)N2CCCCCC2)cc1
IC50 [1]: > 50 µM (not active)

Cc1c(N2C(=O)C3C4C=CC(C5CC45)C3C2=O)c(=O)n(-c2ccccc2)n1C (stereo not drawn)
IC50 [2]: > 47.1 µM (inactive)
EC50 [3]: > 53 µM (inactive)

COc1cc(OC)c2ccc(=O)oc2c1C(CCN1CCN(c2ccccc2)CC1)c1ccc(N(C)C)cc1 (stereo not drawn)
IC50 (Nonstructural protein 1): 32.5 µM (active)

N#CCc1ccc(NS(=O)(=O)c2cccs2)cc1
IC50 [2]: > 47.1 µM (inactive)
EC50 [3]: > 53 µM (inactive)

Cc1ccc(CCNC(=O)C2CCCN(S(=O)(=O)N3CC(C)CC(C)C3)C2)cc1 (stereo not drawn)
IC50 [2]: > 47.1 µM (inactive)
EC50 [3]: > 53 µM (inactive)

Cc1ccc(CN(C)C(=O)CCc2c[nH]c3ccccc23)o1
IC50 [2]: > 47.1 µM (inactive)
EC50 [3]: > 53 µM (inactive)

CCOC(=O)N1CCN(C2=C(NS(=O)(=O)c3ccc(C)cc3)C(=O)c3ccccc3C2=O)CC1
IC50 (Nonstructural protein 1): 21.5 µM (active)

CCCN(CC(=O)Nc1ccc(F)c(F)c1F)C(=O)CCc1nc(O)c2ccccc2n1
IC50 (H9c2): 9.51 µM (active)

Nn1c(SCC(=O)NC(=O)Nc2ccc3c(c2)OCCO3)nnc1C1CC1
IC50 [1]: 9.49 µM (not active)

COc1ccc(NC(=O)c2cc3c(=O)n(C)c4ccccc4c3n2C)cc1OC
IC50 (H9c2): > 79 µM (inactive)

Cc1cc(C)c(S(=O)(=O)Nc2ccc3c(c2)CCC3)c(C)c1
IC50 [1]: 11.4 µM (not active)

CC(C)Nc1nnc(Sc2ccc(Cl)cc2[N+](=O)[O-])s1
IC50 [1]: 4.91 µM (not active)
EC50 [4]: > 195 µM (not active)

Cc1ccc(-n2cnn(-c3ccc([N+](=O)[O-])cc3[N+](=O)[O-])c2=O)cc1
EC50 [8]: > 60 µM (not active)
EC50 [9]: 1.54 µM (active)
IC50 (Nonstructural protein 1): > 100 µM (active)

O=C(c1ccc2[nH]c3c(c2c1)CCCC3)N1CCN(c2ccc(F)cc2)CC1
IC50 (Nonstructural protein 1): > 100 µM (active)
